{
  "source": "patent US20250288564A1",
  "about": "“DIHYDROBERBERINE COMPOSITION AND USE THEREOF” (NANJING NUTRABUILDING BIO-TECH CO., LTD., priority 2022, published 2025)",
  "key": {"[1]": {"test_system": "acute colitis model", "assay": "DSS-induced acute colitis model in mice (DAI, colon pathology)", "type": "in vivo", "conditions": "3% DSS for 9 days, treatment group DSS+DHB, DHB 50 mg/kg daily", "source_text": "Experimental method: Thirty 4-6-week-old mice, 15 males and 15 females, were selected for adaptive feeding for 7 days in advance. They were randomly divided into control group (CON), model group (DSS) and treatment group (DSS+DHB), with 10 mice in each group. The model group and the treatment group were gavaged with 3% dextran sodium sulfate (DSS) for 9 days to establish an acute colitis model, while the control group was gavaged with the same amount of normal saline every day. The weight, feces and rectal bleeding of mice were recorded every day, and the disease activity index (DAI) was used to evaluate the condition of colitis. The DAI value was obtained by adding all the scores and dividing them by three. Mice in the treatment group were given DHB at a daily dose of 50 mg/kg. On the 10th day, blood was taken from the orbit of each mouse, and then it was killed. Colon tissues were collected, fixed in 4% paraformaldehyde solution and stored at −80° C. for subsequent analysis. The pathological damage of colon tissue was examined by hematoxylin-eosin staining and Alxin blue staining. [table]"}, "[2]": {"test_system": "Bacteroides and Firmicutes", "assay": "Abundance ratio of Bacteroides and Firmicutes in mouse feces", "type": "in vivo, mice", "conditions": "DHB 100 mg/kg, 4 weeks, FIG. 3", "source_text": "Experimental method: After a week of adaptive feeding, mice were randomly divided into four groups according to sex and weight: group 1, control group, n=10; group 2, normal+DHB group, n=10; group 3, high-fat-high-sugar group, n=10; and group 4, high-fat-high-sugar+DHB group, n=10. High-fat-high-sugar group (group 3) and high-fat-high-sugar+DHB group (group 4) were given high-fat and high-sugar feed (containing 35% fat, 18% protein and 47% carbohydrate), while the control group and normal+DHB group were given normal feed. After eight weeks, blood was taken from the tail vein to detect blood sugar, and the groups 3 and 4 were given high-fat and high-sugar feed, while the control group and normal+DHB group (groups 1 and 2) were given basic feed until the end of the experiment. Then, groups 2 and 4 were administered DHB at 100 mg/kg (dissolved in physiological saline) for 4 weeks, and fecal samples were taken on days 0, 14 and 28. The maximum dose of DHB refers to the usual dose of daily health care, and the dosage is set to 200 mg/kg. The specific gavage scheme is: dissolve DHB in water and gavage once a day according to the weight of mice, while the control group gavage with the same amount of pure water. […] After completing the classification of data species, the relative abundance of each species was analyzed. […]"}, "[3]": {"test_system": "Faecalibacterium Prausnitzii", "assay": "Relative abundance of microbiota in feces of volunteers (16s sequencing)", "type": "in vivo, human", "conditions": "200 mg DHB every day, 3-week experiment, FIG. 1A", "procedure": "(§1) Experimental method: Six volunteers (three males and three females) were recruited to obtain relevant health data, and it was confirmed that they had not taken antibiotics or probiotics in the previous three months, and were healthy and had no chronic diseases. A 3-week experiment was designed. Volunteers had 30 minutes of moderate-intensity exercise every day, and ensured regular work and rest, reasonable diet, and no smoking or drinking. They were administered 200 mg of dihydroberberine (DHB) every day, and fecal samples were collected on days 0, 7, 14 and 21 of the experiment, and the corresponding bacterial species were analyzed. Before the experiment, fecal samples of each volunteer were collected, and species information was obtained through genomic DNA extraction, PCR amplification of 16s RNA and database comparison."}, "[4]": {"test_system": "Desulfovibrio", "assay": "Relative abundance of microbiota in feces of volunteers (16s sequencing)", "type": "in vivo, human", "conditions": "200 mg DHB every day, 3-week experiment, FIG. 1B", "procedure": "as §1"}, "[5]": {"test_system": "Lactobacillus acidophilus", "assay": "Relative abundance of microbiota in feces of volunteers (16s sequencing)", "type": "in vivo, human", "conditions": "200 mg DHB every day, 3-week experiment, FIG. 1A", "procedure": "as §1"}, "[6]": {"test_system": "Klebsiella pneumoniae", "assay": "Relative abundance of microbiota in feces of volunteers (16s sequencing)", "type": "in vivo, human", "conditions": "200 mg DHB every day, 3-week experiment, FIG. 1B", "procedure": "as §1"}, "[7]": {"test_system": "Akkermansia muciniphila", "assay": "Relative abundance of microbiota in feces of volunteers (16s sequencing)", "type": "in vivo, human", "conditions": "200 mg DHB every day, 3-week experiment, FIG. 1A", "procedure": "as §1"}, "[8]": {"test_system": "Bacteroides fragilis", "assay": "Relative abundance of microbiota in feces of volunteers (16s sequencing)", "type": "in vivo, human", "conditions": "200 mg DHB every day, 3-week experiment, FIG. 1A", "procedure": "as §1"}, "[9]": {"test_system": "Akkermansia muciniphila", "assay": "Absolute amount of Akkermansia muciniphila in mouse feces (qPCR)", "type": "in vivo, mice", "conditions": "DHB 100 mg/kg, 4 weeks, FIG. 4", "source_text": "Experimental method: After a week of adaptive feeding, mice were randomly divided into four groups according to sex and weight: group 1, control group, n=10; group 2, normal+DHB group, n=10; group 3, high-fat-high-sugar group, n=10; and group 4, high-fat-high-sugar+DHB group, n=10. High-fat-high-sugar group (group 3) and high-fat-high-sugar+DHB group (group 4) were given high-fat and high-sugar feed (containing 35% fat, 18% protein and 47% carbohydrate), while the control group and normal+DHB group were given normal feed. After eight weeks, blood was taken from the tail vein to detect blood sugar, and the groups 3 and 4 were given high-fat and high-sugar feed, while the control group and normal+DHB group (groups 1 and 2) were given basic feed until the end of the experiment. […]\nDetermination of absolute amount of Akkermansia muciniphila in mouse feces: The colon feces of mice were collected, the absolute amount of Akkermansia mucinipha in each gram of feces was detected, and the influence of the composition of the invention on the absolute amount of Akkermansia mucinipha in the intestines of normal and high-fat-high-sugar mice was analyzed. […] The data is expressed as the logarithm of the number of bacteria per gram of feces (Log 10), and the results are shown in FIGS. 2-4."}, "[10]": {"test_system": "Faecalibacterium Prausnitzii", "assay": "Relative abundance of microbiota in feces of mice (16S rDNA sequencing)", "type": "in vivo", "conditions": "DHB 100 mg/kg gavage once a day for 4 weeks, FIG. 2A", "source_text": "(§2) Experimental method: After a week of adaptive feeding, mice were randomly divided into four groups according to sex and weight: group 1, control group, n=10; group 2, normal+DHB group, n=10; group 3, high-fat-high-sugar group, n=10; and group 4, high-fat-high-sugar+DHB group, n=10. High-fat-high-sugar group (group 3) and high-fat-high-sugar+DHB group (group 4) were given high-fat and high-sugar feed (containing 35% fat, 18% protein and 47% carbohydrate), while the control group and normal+DHB group were given normal feed. After eight weeks, blood was taken from the tail vein to detect blood sugar, and the groups 3 and 4 were given high-fat and high-sugar feed, while the control group and normal+DHB group (groups 1 and 2) were given basic feed until the end of the experiment. Then, groups 2 and 4 were administered DHB at 100 mg/kg (dissolved in physiological saline) for 4 weeks, and fecal samples were taken on days 0, 14 and 28. The maximum dose of DHB refers to the usual dose of daily health care, and the dosage is set to 200 mg/kg. The specific gavage scheme is: dissolve DHB in water and gavage once a day according to the weight of mice, while the control group gavage with the same amount of pure water. Analysis of the relative abundance of intestinal flora: Four samples of mouse feces were randomly taken from each group. The samples were first extracted for DNA, 16S rDNA was amplified by PCR, and then sequenced. After completing the classification of data species, the relative abundance of each species was analyzed."}, "[11]": {"test_system": "Desulfovibrio", "assay": "Relative abundance of microbiota in feces of mice (16S rDNA sequencing)", "type": "in vivo", "conditions": "DHB 100 mg/kg gavage once a day for 4 weeks, FIG. 2B", "source_text": "as §2"}, "[12]": {"test_system": "Lactobacillus acidophilus", "assay": "Relative abundance of microbiota in feces of mice (16S rDNA sequencing)", "type": "in vivo", "conditions": "DHB 100 mg/kg gavage once a day for 4 weeks, FIG. 2A", "source_text": "as §2"}, "[13]": {"test_system": "Klebsiella pneumoniae", "assay": "Relative abundance of microbiota in feces of mice (16S rDNA sequencing)", "type": "in vivo", "conditions": "DHB 100 mg/kg gavage once a day for 4 weeks, FIG. 2B", "source_text": "as §2"}, "[14]": {"test_system": "Akkermansia muciniphila", "assay": "Relative abundance of microbiota in feces of mice (16S rDNA sequencing)", "type": "in vivo", "conditions": "DHB 100 mg/kg gavage once a day for 4 weeks, FIG. 2A", "source_text": "as §2"}, "[15]": {"test_system": "Bacteroides fragilis", "assay": "Relative abundance of microbiota in feces of mice (16S rDNA sequencing)", "type": "in vivo", "conditions": "DHB 100 mg/kg gavage once a day for 4 weeks, FIG. 2A", "source_text": "as §2"}, "[16]": {"conditions": "compared with berberine, background statement; cited from earlier work"}, "[17]": {"conditions": "high-fat-high-sugar mice: group 4 (+DHB) compared with group 3"}, "[18]": {"conditions": "normal feed mice: group 2 (normal+DHB) compared with group 1 (control)"}},
  "data": [
    {"smiles": "COc1ccc2c(c1OC)CN1CCc3cc4c(cc3C1=C2)OCO4", "note": "[dihydroberberine]", "values": [
      {"measurement": "intestinal pathological changes (colon tissue, hematoxylin-eosin and Alxin blue staining)", "setting": "[1]; FIGS. 5A-5C", "result": "significantly improved the integrity of crypt structure"},
      {"measurement": "DAI score (disease activity index)", "setting": "[1]; model group close to 3", "result": "about 1.1"},
      {"measurement": "increase of ratio of Bacteroides to Firmicutes", "setting": "[2]; [17]", "result": 0.51},
      {"measurement": "increase of ratio of Bacteroides to Firmicutes", "setting": "[2]; [18]", "result": 0.36},
      {"measurement": "increase of relative abundance level of Faecalibacterium Prausnitzii", "setting": "[3]", "result": 0.15, "unit": "%"},
      {"measurement": "decrease of relative abundance level of Desulfovibrio", "setting": "[4]", "result": 0.14, "unit": "%"},
      {"measurement": "increase of relative abundance level of Lactobacillus acidophilus", "setting": "[5]", "result": 0.20, "unit": "%"},
      {"measurement": "decrease of relative abundance level of Klebsiella pneumoniae", "setting": "[6]", "result": 0.12, "unit": "%"},
      {"measurement": "increase of relative abundance level of Akkermansia muciniphila", "setting": "[7]", "result": 0.09, "unit": "%"},
      {"measurement": "increase of relative abundance level of Bacteroides fragilis", "setting": "[8]", "result": 0.11, "unit": "%"},
      {"measurement": "increase of logarithm number of Akkermansia muciniphila per gram of feces", "setting": "[9]; [17]", "result": "0.55 order of magnitude"},
      {"measurement": "increase of logarithm number of Akkermansia muciniphila per gram of feces", "setting": "[9]; [18]", "result": "0.65 order of magnitude"},
      {"measurement": "increase of relative abundance level of Faecalibacterium Prausnitzii", "setting": "[10]", "result": 0.14, "unit": "%"},
      {"measurement": "decrease of relative abundance level of Desulfovibrio", "setting": "[11]", "result": 0.08, "unit": "%"},
      {"measurement": "increase of relative abundance level of Lactobacillus acidophilus", "setting": "[12]", "result": 0.19, "unit": "%"},
      {"measurement": "decrease of relative abundance level of Klebsiella pneumoniae", "setting": "[13]", "result": 0.11, "unit": "%"},
      {"measurement": "increase of relative abundance level of Akkermansia muciniphila", "setting": "[14]", "result": 0.09, "unit": "%"},
      {"measurement": "increase of relative abundance level of Bacteroides fragilis", "setting": "[15]", "result": 0.10, "unit": "%"},
      {"measurement": "water solubility relative to berberine", "setting": "[16]", "result": "higher water solubility"}
    ]}
  ]
}
